{
  "source": "patent US5364615A",
  "about": "(priority 1992, dated 1994)",
  "assay": "Toxicity during PCP treatment (Example 1)",
  "data": [
    {"smiles": "N=C(N)c1ccc(OCCCCCOc2ccc(C(=N)N)cc2)cc1", "note": "[pentamidine, p,p'-(pentamethylenedioxy)dibenzamidine]", "values": [
      {"measurement": "glucose", "setting": "approximately 165 determinations", "result": "> 3.9", "unit": "mmol/L"},
      {"measurement": "minor toxicity", "setting": "inhalation", "result": "One inhalation patient (16) experienced minor toxicity (rash)"},
      {"measurement": "major toxicity", "setting": "inhalation, two of ten evaluable (neutropenia; both also received AZT)", "result": 20, "unit": "%"},
      {"measurement": "minor toxicity", "setting": "intravenous, elevated serum creatinine in three, depressed leukocyte count in one", "result": "occurred in four iv-treated patients"},
      {"measurement": "leukocyte count", "setting": "intravenous, patient 18 after ten days", "result": "6e+08", "unit": "L⁻¹"},
      {"measurement": "major toxicity", "setting": "intravenous, two of nine (neutropenia, hepatotoxicity)", "result": 22, "unit": "%"},
      {"measurement": "change of therapy due to toxicity", "setting": "iv-treated patients, two of 19 evaluated as printed", "result": 11, "unit": "%"}
    ]}
  ]
}
